Experimental findings from patent publication US20070004621A1, “Bex4 nucleic acids, polypeptides, and method of using” (priority 2003, published 2007) are described below.

The test system of assay [1] is Bex4 transcription in OV202 cells. The assay can be described thus: Bex4 transcription (RT-PCR) in OV202 cells after 5-aza-2′-deoxycytidine treatment. Type of assay: cell-based, human. To be noted: OV202 cells, 0, 1, 5, or 10 μM, 48 hours, PCR with Bex4 specific primers. How it is done: To determine if hypermethylation is responsible for inactivation of Bex4 expression in OvCa cell lines, OV202 cells were treated with 0, 1, 5, or 10 μM 5-aza-2′-deoxycytidine (a DNA methyltransferase inhibitor) for 48 hours. RNA was extracted, reverse transcribed, and analyzed by PCR using Bex4 specific primers.

Assay [2] concerns Bex4 expression in Xa cell line. The assay can be described thus: Bex4 expression and site 1 methylation in Xa hybrid cell line after inhibitor treatment. To be noted: for Bex4 expression / transcription: Xa (active X) hybrid cell line, various concentrations. Format: cell-based. How it is done:
To determine if methylation of site 1 controlled Bex4 expression in the Xa cell line, cells were treated with various concentrations of the methyltransferase inhibitor 5-aza-2′ deoxycytidine (5-aza-dC). […] Epigenetic inactivation Bex4 in Xa was specific, since two genes flanking Bex4, namely Bex3/NADE and pp21 homolog, were expressed in Xa.

Assay [3] deals with Bex4 transcription in OV207. The assay can be described thus: Bex4 transcription in OV207 cells after 5-aza-dC treatment. To be noted: OV207 cell line. Type of assay: cell-based, human. The text has this:
Methylation at site 1 in these samples was associated with loss of Bex4 expression, as evidenced by semi-quantitative RT-PCR.

With `Nc1ncn([C@H]2C[C@H](O)[C@@H](CO)O2)c(=O)n1` [5-aza-2′-deoxycytidine], the “transcription of Bex4” value in assay [1] is listed as “dose dependant increase”. Also, the “methylation of site 1 (bisulfite-modified DNA)” value in assay [2] (5-aza-dC treated Xa cells) is reported as “demethylation of site 1”. The “Bex4 expression / transcription” value in assay [2] is reported as “dose-dependent increase”. Besides, the Bex4 transcription entry in assay [3] is “induced Bex4 transcription”.
Regarding `CC(/C=C/C(=O)NO)=C\[C@@H](C)C(=O)c1ccc(N(C)C)cc1` [Trichostatin A, trichostatin A], the “Bex4 expression / transcription” value in assay [2] is listed as “did not affect”.
